{
  "source": "patent US20230040594A1",
  "about": "“MILK-DERIVED POLYPEPTIDE DERIVATIVE, COMPOSITION AND METHOD FOR PREVENTING AND TREATING OBESITY” (Nanjing Maternity and Child Health Care Hospital, priority 2021, published 2023)",
  "key": {"[1]": {"test_system": "brown fat (BAT) and inguinal subcutaneous white adipose tissues (iWAT)", "test": "H&E staining of adipose tissues of mice with high-fat diet (Embodiment 5)", "format": "in vivo", "conditions": "10 weeks; 5 and 10 mg/kg i.p. twice a week; FIG. 9", "experimental": "C57BL/6J male mice at 6-8 weeks old were used as research subjects, and an experiment was carried out after adaptation to a SPF animal room for one week. The mice were fed with high-fat diet (with 60% of fat content) for 10 weeks to induce obesity phenotype in mice. At the same time, different drug concentrations (5 mg/kg and 10 mg/kg) were provided, and the milk-derived polypeptide derivatives corresponding to SEQ ID NO.5 were administered by intraperitoneal injection twice a week, with dissolved normal saline (Vehicle) as a control. After 10 weeks of intervention, the mice were killed, and brown fat (BAT) at scapula and inguinal subcutaneous white adipose tissues (iWAT) were taken to be fixed with a adipose tissue fixing solution (Solarbio, G2185) for 24 hours. H&E staining and a UCP1 protein immunohistochemistry study were carried out after dehydration, paraffin embedding and sectioning. The H&E staining is performed using a kit (ab245800) from Abcam, and specific steps can be found in kit instructions. Tissue sections were subjected to the immunohistochemistry study after dewaxing and antigen repairing. […] At the same time, total protein was extracted by a RIPA lysate, and expression of the UCP1 protein in the adipose tissues was detected by a Western blot method after quantifying, SDS-PAGE electrophoresis and transmembrane."}, "[2]": {"test_system": "C57BL/6J male mice fed with high-fat diet", "test": "Weight increasing of mice with high-fat diet (Embodiment 2)", "format": "in vivo", "conditions": "5 and 10 mg/kg i.p. twice a week", "experimental": "C57BL/6J male mice at 6-8 weeks old were used as research subjects, and an experiment was carried out after adaptation to a SPF animal room for one week. The mice were fed with high-fat diet (with 60% of fat content) for 10 weeks to induce obesity phenotype in mice. At the same time, different drug concentrations (5 mg/kg and 10 mg/kg) were provided, and the milk-derived polypeptide derivatives corresponding to SEQ ID NO.5 were administered by intraperitoneal injection twice a week, with dissolved normal saline (Vehicle) as a control. The mice are weighed to obtain body weight and their food intake calculated every week. After the mice were killed, brown fat (BAT) at scapular, inguinal white adipose tissue (iWAT) and epididymal white adipose tissue (eWAT) were photographed, weighed to obtain wet weight and lean mass of the mice was calculated."}, "[3]": {"test_system": "adipose tissues of obese model mice", "test": "H&E staining of adipose tissues of obese model mice (Embodiment 6)", "format": "in vivo", "conditions": "10 mg/kg i.p. once a day for 8 weeks; FIG. 13", "experimental": "(§1) C57BL/6J male mice at 6-8 weeks old were used as research subjects, and an experiment was carried out after adaptation to a SPF animal room for one week. The mice were fed with high-fat diet (with 60% of fat content) for 10 weeks to induce obesity phenotype in mice. At the same time, different drug concentrations (5 mg/kg and 10 mg/kg) were provided, and the milk-derived polypeptide derivatives corresponding to SEQ ID NO.5 were administered by intraperitoneal injection twice a week, with dissolved normal saline (Vehicle) as a control. […] At the same time, total protein was extracted by a RIPA lysate, and expression of the UCP1 protein in the adipose tissues was detected by a Western blot method after quantifying, SDS-PAGE electrophoresis and transmembrane.\n(§2) C57BL/6J male mice at 6-8 weeks old were used as research subjects, and an experiment was carried out after adaptation to a SPF animal room for one week. […] The mice were weighed every week for their weight changes, and at the same time, blood glucose changes of the mice were detected by a blood glucose meter. […] As mentioned above, H&E staining was also performed to observe morphological changes of lipid droplets, and expression of the UCP1 protein in adipose tissues was detected by immunohistochemistry and the Western blot methods."}, "[4]": {"test_system": "obese C57BL/6J male mice induced by high-fat diet for six months", "test": "Body weight, blood glucose and adipose tissue volume of obese model mice (Embodiment 6)", "format": "in vivo", "experimental": "C57BL/6J male mice at 6-8 weeks old were used as research subjects, and an experiment was carried out after adaptation to a SPF animal room for one week. The mice were fed with high-fat diet (with 60% of fat content) for six months to induce obesity phenotype in mice. After six months, the milk-derived polypeptide derivative shown by SEQ ID NO.5 (10 mg/kg) was administered by intraperitoneal injection once a day and continuously for 8 weeks. The mice were weighed every week for their weight changes, and at the same time, blood glucose changes of the mice were detected by a blood glucose meter. After intervention, the mice were killed, and then brown fat (BAT) at scapular, inguinal white adipose tissue (iWAT) and epididymal white adipose tissue (eWAT) were photographed. As mentioned above, H&E staining was also performed to observe morphological changes of lipid droplets, and expression of the UCP1 protein in adipose tissues was detected by immunohistochemistry and the Western blot methods."}, "[5]": {"test_system": "C57BL/6J male mice fed with high-fat diet", "test": "Glucose tolerance test (GTT) in mice with high-fat diet (Embodiment 3)", "format": "in vivo", "conditions": "FIG. 6", "experimental": "(§3) C57BL/6J male mice at 6-8 weeks old were used as research subjects, and an experiment was carried out after adaptation to a SPF animal room for one week. The mice were fed with high-fat diet (with 60% of fat content) for 10 weeks to induce obesity phenotype in mice. At the same time, different drug concentrations (5 mg/kg and 10 mg/kg) of the milk-derived polypeptide derivatives corresponding to SEQ ID NO.5 were provided, and were administered by intraperitoneal injection twice a week, with dissolved normal saline (Vehicle) as a control.\n(§4) Insulin Sensitivity: The mice are fasted overnight for 12 hours, and at a next day, insulin was injected by intraperitoneal injection at a standard of 0.75 U per kg of weight. Blood samples were taken from tail vein at 0 min, 15 min, 30 min, 60 min, 90 min and 120 min after the injection, and changes of the blood glucose in the mice were measured by a blood glucose meter to evaluate the insulin sensitivity of the mice. Glucose tolerance test: after fasting for 6 hours, the mice were injected with glucose by intraperitoneal injection at a concentration of 1 g per kg of weight. Blood samples were taken from tail vein at 0 min, 15 min, 30 min, 60 min, 90 min and 120 min after the injection, and changes of the blood glucose in the mice were measured by a blood glucose meter to evaluate the glucose tolerance of the mice."}, "[6]": {"test_system": "C57BL/6J male mice fed with high-fat diet", "test": "Fasting blood glucose, blood lipid and insulin levels of mice with high-fat diet (Embodiment 4)", "format": "in vivo", "conditions": "continuous intervention for 10 weeks; 5 and 10 mg/kg i.p. twice a week; FIG. 8", "experimental": "as §3, with “resolvent” for “dissolved normal”, “control. The changes of the blood glucose in the mice were detected by a Roche blood glucose meter, and changes of blood lipid and insulin level in the mice were detected by Applygen and Millipore commercial kits respectively.” for “control.”"}, "[7]": {"test_system": "UCP1 protein", "test": "UCP1 protein immunohistochemistry and Western blot in adipose tissues of obese model mice (Embodiment 6)", "format": "in vivo", "conditions": "10 mg/kg i.p. once a day for 8 weeks; FIG. 13 and FIG. 14", "experimental": "as §1, §2"}, "[8]": {"test_system": "C57BL/6J male mice fed with high-fat diet", "test": "Insulin sensitivity (ITT) in mice with high-fat diet (Embodiment 3)", "format": "in vivo", "experimental": "as §3, §4"}, "[9]": {"test_system": "UCP1 protein", "test": "UCP1 protein immunohistochemistry and Western blot in adipose tissues of mice with high-fat diet (Embodiment 5)", "format": "in vivo", "experimental": "C57BL/6J male mice at 6-8 weeks old were used as research subjects, and an experiment was carried out after adaptation to a SPF animal room for one week. The mice were fed with high-fat diet (with 60% of fat content) for 10 weeks to induce obesity phenotype in mice. At the same time, different drug concentrations (5 mg/kg and 10 mg/kg) were provided, and the milk-derived polypeptide derivatives corresponding to SEQ ID NO.5 were administered by intraperitoneal injection twice a week, with dissolved normal saline (Vehicle) as a control. After 10 weeks of intervention, the mice were killed, and brown fat (BAT) at scapula and inguinal subcutaneous white adipose tissues (iWAT) were taken to be fixed with a adipose tissue fixing solution (Solarbio, G2185) for 24 hours. H&E staining and a UCP1 protein immunohistochemistry study were carried out after dehydration, paraffin embedding and sectioning. The H&E staining is performed using a kit (ab245800) from Abcam, and specific steps can be found in kit instructions. Tissue sections were subjected to the immunohistochemistry study after dewaxing and antigen repairing. Specifically, the sections were incubated overnight with UCP1 antibody (1:200, Proteintech) at 4 degrees. The antibody was diluted with PBS containing 1% of BSA, and a color reaction was carried out next day with a DAB kit from Abcam. Specific operations can be referred to kit experimental steps. At the same time, total protein was extracted by a RIPA lysate, and expression of the UCP1 protein in the adipose tissues was detected by a Western blot method after quantifying, SDS-PAGE electrophoresis and transmembrane."}, "[10]": {"conditions": "previous studies; can scavenge free radicals produced in vivo; cited from earlier work"}, "[11]": {"conditions": "10 mg/kg i.p. once a day for 8 weeks after six months high-fat diet, FIG. 11"}},
  "data": [
    {"sequence": "GRKKRRQRRRPPQQVKEAMAPK [SEQ ID NO.5, theone tested in Embodiments 2-6]", "values": [
      {"measurement": "morphology sizes of lipid droplets in brown fat and white adipose tissues (H&E staining)", "setting": "[1]", "value": "significantly reduced"},
      {"measurement": "fat content (wet weight test of the adipose tissues)", "setting": "[2]; 10 weeks, FIG. 4", "value": "decreased significantly"},
      {"measurement": "lean mass of the mice", "setting": "[2]; 10 weeks, FIG. 5", "value": "no significant change"},
      {"measurement": "volumes of subcutaneous and abdominal white adipose tissues", "setting": "[2]; after dissection, 10 weeks, FIG. 3", "value": "decreased significantly"},
      {"measurement": "weight of the mice vs control group (Vehicle)", "setting": "[2]; by 10th week", "value": "significantly lower"},
      {"measurement": "sizes of the lipid droplets in the two tissues (H&E staining)", "setting": "[3]", "value": "decreased significantly"},
      {"measurement": "body weight of the obese mice", "setting": "[4]; [11]", "value": "significantly reduced"},
      {"measurement": "fasting blood glucose", "setting": "[4]; [11]", "value": "decreased"},
      {"measurement": "tissue volumes of white fat (subcutaneous and abdominal) and brown fat (scapular areas)", "setting": "[4]; 10 mg/kg i.p. once a day for 8 weeks, after dissection, FIG. 12", "value": "significantly reduced"},
      {"measurement": "area under the curve (GTT)", "setting": "[5]; 10 mg/kg for 10 weeks", "value": "significant statistical significance"},
      {"measurement": "blood glucose levels within 2 hours after glucose injection vs control", "setting": "[5]; continuous intervention for 10 weeks, 5 and 10 mg/kg, glucose 1 g per kg i.p.", "value": "lower than those of the control group"},
      {"measurement": "blood lipid (triglyceride) level", "setting": "[6]", "value": "significantly reduced"},
      {"measurement": "fasting blood glucose level", "setting": "[6]", "value": "significantly reduced"},
      {"measurement": "insulin level", "setting": "[6]", "value": "significantly reduced"},
      {"measurement": "expression of UCP1 in two kinds of adipose tissues (immunohistochemistry and Western blot)", "setting": "[7]", "value": "increased"},
      {"measurement": "insulin sensitivity (ITT)", "setting": "[8]; 5 mg/kg, FIG. 7", "value": "certain statistical significance"},
      {"measurement": "blood glucose levels within 2 hours after insulin injection vs control", "setting": "[8]; continuous intervention for 10 weeks, 5 and 10 mg/kg, insulin 0.75 U per kg i.p.", "value": "lower than those of the control group"},
      {"measurement": "effect on UCP1 protein content at low drug concentration (Western blot)", "setting": "[9]; 5 mg/Kg, FIG. 10", "value": "good effect"},
      {"measurement": "UCP1 immunohistochemistry brown areas in brown and white adipose tissues", "setting": "[9]; 10 weeks, 5 and 10 mg/kg i.p. twice a week, FIG. 9", "value": "significantly increased"},
      {"measurement": "contents of the UCP1 protein in brown and white adipose tissues (Western blot)", "setting": "[9]; 10 weeks, 5 and 10 mg/kg, certain dose-dependent relationship, FIG. 10", "value": "significantly increased"}
    ]},
    {"sequence": "VKEAMAPK [Val-Lys-Glu-Ala-Met-Ala-Pro-Lys, isolated linear milk-derived polypeptide from β-casein 98-105 amino acids]", "values": [
      {"measurement": "antioxidant activity", "setting": "[10]", "value": "antioxidant activity"}
    ]}
  ]
}
